Results from publication PMC8537501 (2021).
Each block holds one molecule with its values, some of them ahead of it.

How the values were obtained:
[1] = test system: CPG-tel26 (DNA, G4) TTAGGGTTAGGGTTAGGGTTAGGGTT; assay: G4-CPG affinity chromatography; conditions: 50 mM KCl; 10% DMSO, 10% ethanol; 600 μM ligand
[2] = test system: CPG-c-myc (DNA, G4) TGGGGAGGGTGGGGAGGGTGGGGAAGGTGGGGA; assay: G4-CPG affinity chromatography; conditions: 50 mM KCl; 10% DMSO, 10% ethanol; 600 μM ligand
[3] = test system: CPG-ds27 (DNA, hairpin) CGCGAATTCGCGTTTCGCGAATTCGCG; assay: G4-CPG affinity chromatography; conditions: 50 mM KCl; 10% DMSO, 10% ethanol; 600 μM ligand
[4] = test system: c-myc (DNA, G4) TGGGGAGGGTGGGGAGGGTGGGGAAGGTGGGGA; assay: CD melting, 262 nm; conditions: 0.5 mM KCl; 0.5 mM phosphate, 5% DMSO, pH 7; 2 μM DNA, 20 μM ligand
[5] = test system: c-myc (DNA, G4) TGGGGAGGGTGGGGAGGGTGGGGAAGGTGGGGA; assay: fluorescence titration; conditions: 5 mM KCl
[6] = test system: ds27 (DNA, hairpin) CGCGAATTCGCGTTTCGCGAATTCGCG; assay: CD melting, 251 nm; conditions: 5 mM KCl; 5 mM phosphate, 5% DMSO, pH 7; 2 μM DNA, 20 μM ligand
[7] = test system: ds27 (DNA, hairpin) CGCGAATTCGCGTTTCGCGAATTCGCG; assay: fluorescence titration; conditions: 5 mM KCl
[8] = test system: tel26 (DNA, G4) TTAGGGTTAGGGTTAGGGTTAGGGTT; assay: fluorescence titration; conditions: 5 mM KCl
[9] = test system: tel26 (DNA, G4) TTAGGGTTAGGGTTAGGGTTAGGGTT; assay: CD melting, 290 nm; conditions: 5 mM KCl; 5 mM phosphate, 5% DMSO, pH 7; 2 μM DNA, 20 μM ligand
[10] = 5 mM phosphate, 5% DMSO, pH 7, 20 °C, 2 μM ligand, independent equivalent-sites model

Structure (SMILES): CC(C)=CCc1c(C)cc2cc3c(c(O)c2c1O)C(=O)C=C(O)C3(CC=C(C)C)CC=C(CO)CO (stereo not shown)
- binding [1]: weak
- binding [2]: weak

Structure (SMILES): COc1cc2cc3c(c(O)c2c2c1C=CC(C)(C)O2)C(=O)CC(C)(O)C3 (stereo not shown)
- binding [1]: weak
- binding [2]: weak

Structure (SMILES): CC(C)(O)CC[C@@H](O)[C@](C)(O)[C@H]1CC[C@@]2(O)C3=CC(=O)[C@@H]4C[C@@H](O)[C@@H](O)C[C@]4(C)[C@H]3CC[C@]12C
- binding [1]: weak

Structure (SMILES): CC1=C2C(=O)[C@H]3[C@@H](CC=C4C[C@@H](O)CC[C@@]43C)[C@@H]2CC[C@]12O[C@@H]1C[C@H](C)CN[C@H]1[C@H]2C
- binding [3]: yes
- binding [1]: yes
- binding [2]: yes

Structure (SMILES): CC(C)=CCC1=C(O)c2c(cc3cc(C)cc(O)c3c2O)C(CC=C(C)C)(CC=C(C)C)C1=O
- binding [1]: weak
- binding [2]: weak

Results, then the molecule that gave them:

- binding [2]: weak
Structure (SMILES): COC(=O)[C@@H]1[C@H]2C[C@H]3c4[nH]c5ccccc5c4CCN3C[C@@H]2CC[C@@H]1O

- ΔTm [4]: +13 °C
- binding ([5]; 5 mM phosphate, 5% DMSO, pH 7, 20 °C, 2 μM ligand, enhancement then quenching, not fitted): yes
- ΔTm [6]: −1 °C
- binding ([7]; 5 mM phosphate, 5% DMSO, pH 7, 20 °C, 2 μM ligand, DNA up to 10 μM): no
- binding ([8]; 5 mM phosphate, 5% DMSO, pH 7, 20 °C, 2 μM ligand, quenching, not fitted): yes
- ΔTm [9]: +4 °C
Structure (SMILES): CN1Cc2c(ccc3c2OCO3)[C@@H]2[C@H]1c1cc3c(cc1C[C@@H]2O)OCO3

- Kb [5]: 3.9 (±0.7) × 10^5 M^-1
- ΔTm [6]: 0 °C
- Kb [7]: 3.7 (±0.7) × 10^5 M^-1
- Kb [8]: 4.1 (±0.8) × 10^5 M^-1
- ΔTm [9]: +2 °C
Structure (SMILES): CC[C@H]1C[C@@H]2C[C@H]3c4[nH]c5ccc(OC)cc5c4CCN(C2)[C@@H]13

- binding [3]: yes
- binding [1]: yes
- binding [2]: yes
Structure (SMILES): CC[C@H]1CN2CCc3cc(OC)c(OC)cc3[C@@H]2C[C@@H]1C[C@H]1NCCc2cc(OC)c(OC)cc21

- ΔTm [4]: +9 °C
- Kb [5, 10]: 1.1 (±0.4) × 10^6 M^-1
- Kb [7, 10]: 1.2 (±0.6) × 10^6 M^-1
- Kb [8, 10]: 1.0 (±0.4) × 10^6 M^-1
Structure (SMILES): COc1ccc2c(c1O)-c1c3c(cc4c1[C@H](C2)N(C)CC4)OCO3

- ΔTm [4]: +5 °C
- ΔTm [6]: −3 °C
- binding [1]: yes
- binding [2]: yes
- ΔTm [9]: 0 °C
Structure (SMILES): CN1CC[C@]23C(=O)C[C@H]4C(=CCO[C@H]5CC(=O)N(c6c(O)cccc62)[C@H]3[C@H]54)C1
